The values that follow come from patent publication US8765767B2, “Positive allosteric modulators of mGluR2” (Bristol-Myers Squibb Company, priority 2012, dated 2014).

The subject of the first assay is mGluR2/3.
Experiment: not given
To be noted: rats treated with PCP; cited from earlier work.
For the compound `N[C@@]1(C(=O)O)CC[C@H]2[C@H](C(=O)O)[C@H]21` [LY-354740], the “behavioral effects of PCP (hyper-locomotion, working memory deficits)” value is “reversed the behavioral effects of PCP” and the brain glutamate levels entry is recorded as “lowered brain glutamate levels”.

The target in a further assay is T1, human mGluR2 (Homo sapiens, UniProt Q14416).
T1 construct: expressed in transfected cells; host or cells: HEK293 clonal line
T1 sequence (Q14416 19-872): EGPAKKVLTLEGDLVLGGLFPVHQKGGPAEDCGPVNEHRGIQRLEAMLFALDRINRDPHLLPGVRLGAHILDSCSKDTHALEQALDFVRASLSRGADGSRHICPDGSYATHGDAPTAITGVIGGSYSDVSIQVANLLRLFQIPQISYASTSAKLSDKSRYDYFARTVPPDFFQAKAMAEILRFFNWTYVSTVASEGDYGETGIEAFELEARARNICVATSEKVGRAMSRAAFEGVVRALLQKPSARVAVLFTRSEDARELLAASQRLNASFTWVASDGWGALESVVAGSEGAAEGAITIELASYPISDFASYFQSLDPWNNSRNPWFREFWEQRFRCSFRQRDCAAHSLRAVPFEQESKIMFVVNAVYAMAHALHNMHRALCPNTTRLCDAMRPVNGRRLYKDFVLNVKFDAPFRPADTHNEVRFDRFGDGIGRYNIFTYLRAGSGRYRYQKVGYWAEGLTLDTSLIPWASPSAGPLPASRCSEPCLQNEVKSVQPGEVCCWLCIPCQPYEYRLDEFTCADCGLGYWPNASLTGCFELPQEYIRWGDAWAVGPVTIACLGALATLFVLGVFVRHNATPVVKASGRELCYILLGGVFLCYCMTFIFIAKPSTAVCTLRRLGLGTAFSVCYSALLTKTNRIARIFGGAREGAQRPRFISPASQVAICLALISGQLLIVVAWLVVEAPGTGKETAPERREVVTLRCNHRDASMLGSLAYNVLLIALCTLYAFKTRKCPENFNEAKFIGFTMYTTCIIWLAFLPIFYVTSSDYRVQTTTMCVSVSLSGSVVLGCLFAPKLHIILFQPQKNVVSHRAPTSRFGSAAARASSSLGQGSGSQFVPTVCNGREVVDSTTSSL
Nature of the assay: mGluR2 cAMP assay (HTRF) in HEK293 cells clonally expressing human mGluR2. The format is cell-based. To be noted: HEK293 cells expressing human mGluR2, 1 μM forskolin, 1 μM LY-341495, 30 min. How it is done:
• Cell Culture. Clonally expressed human mGluR2 in HEK293 background was glutamate starved overnight in media without glutamine (GIBCO MEM 12360), containing 10% FBS, 1% penicillin streptomycin. • cAMP Measurement. On the day of the assay, media was removed, cells washed with PBS, cells harvested and pelleted by centrifugation. Cell pellets were resuspended in stimulation buffer without forskolin and counted. A solution of 1.25×10^6 cells/mL was prepared and dispensed to plates using a Combi liquid handler (Thermo). A standard curve was created using a top concentration of cAMP of 1 μM in the stimulation buffer, 1:3 dilutions over 14 points in the absence of cells. Plates were read by time-resolved fluorescence at […] and a ratio was calculated via in house software, (665 nM/618 nM)*10^4. In house software converted the fluorescence value ratios to units of cAMP concentration, which is then used to calculate % inhibition for each test compound. • MGluR2 cAMP Assay Materials and Methods. Compounds were added to white, standard volume 384 non-binding surface plates (Corning 3574). Cells were resuspended in stimulation buffer consisting of Hanks Balanced Salt Solution (14175-095) pH 7.0, 20 mM HEPES, 2.0 mM CaCl2, 5.0 mM MgCl2, and 1 mM IBMX (Sigma 15879), 1 μM forskolin, and 1 μM LY-341495 for 30 min. Buffer without forskolin was used as a negative control. Solutions of D2 and cryptate detection reagents from the CISBIO dynamic cAMP kit (62AM4PEJ) were diluted 1:40 in lysis buffer. Lysis buffer consisted of 50 mM Phosphate Buffer pH 7.0, 800 mM Potassium Fluoride, 0.2% BSA, and 1.0% Triton. Assay reaction was terminated by addition of detection reagents in lysis buffer. One hour later, plates were read on a PE Viewlux. Data was extracted, and concentration response curves generated by fitting the data to a standard 4 parameter logistic equation from which EC50 values were determined.
(cAMP levels reflect the balance of adenylyl cyclase and phosphodiesterase activity.)
The EC50 is the concentration needed to bring the measured effect to its halfway point. The low end stands for a more potent agent, the high end for a less potent agent. Consider `Fc1ccc([C@H]2C[C@@H]2CNc2ccn3c(CC(F)(F)F)nnc3c2C(F)(F)F)cc1` [Example 21, N-(((1S,2S)-2-(4-Fluorophenyl)cyclopropyl)methyl)-3-(2,2,2-trifluoroethyl)-8-(trifluoromethyl)-[1,2,4]triazolo[4,3-a]pyridin-7-amine], for which the EC50 worked out at 2 nM. This counts as single-digit nanomolar. `Fc1ccc([C@@H]2C[C@H]2CNc2ccn3c(CC4CC4)nnc3c2C(F)(F)F)cc1` [Example 22, 3-(Cyclopropylmethyl)-N-(((1R,2R)-2-(4-fluorophenyl)cyclopropyl)methyl)-8-(trifluoromethyl)-[1,2,4]triazolo[4,3-a]pyridin-7-amine] registered a concentration for a half-maximal effect (EC50) of 1 nM. On the same count and under the same terms, in the case of `Fc1ccc(C2CC2CNc2ccn3c(CC(F)(F)F)cnc3c2C(F)(F)F)cc1` (centres unmarked) [Example 25, N-((2-(4-Fluorophenyl)cyclopropyl)methyl)-3-(2,2,2-trifluoroethyl)-8-(trifluoromethyl)imidazo[1,2-a]pyridin-7-amine] it was 41 nM; in that of `N#Cc1c(NCC2CC2c2cccc(F)c2)ccn2c(CC(F)(F)F)cnc12` (centres unmarked) [Example 26, 7-(((2-(3-Fluorophenyl)cyclopropyl)methyl)amino)-3-(2,2,2-trifluoroethyl)imidazo[1,2-a]pyridine-8-carbonitrile], 54 nM. In turn, `COc1cccc(F)c1C1CC1CNc1ccn2c(CC(F)(F)F)cnc2c1C#N` (centres unmarked) [Example 27, 7-(((2-(2-Fluoro-6-methoxyphenyl)cyclopropyl)methyl)amino)-3-(2,2,2-trifluoroethyl)imidazo[1,2-a]pyridine-8-carbonitrile] registered a concentration giving a half-maximal response (EC50) of 20 nM.

In the case of `N#Cc1c(NCC2CC2c2ccccc2OC(F)(F)F)ccn2c(CC(F)(F)F)cnc12` (centres unmarked) [Example 28, 3-(2,2,2-Trifluoroethyl)-7-(((2-(2-(trifluoromethoxy)phenyl)cyclopropyl)methyl)amino)imidazo[1,2-a]pyridine-8-carbonitrile], the response was half-maximal at 59 nM (EC50). This EC50 is about 3-fold higher than that of the compound before. Same read-out and setting: then `COc1ccccc1C1CC1CNc1ccn2c(CC(F)(F)F)cnc2c1C#N` (centres unmarked) [Example 29, 7-(((2-(2-Methoxyphenyl)cyclopropyl)methyl)amino)-3-(2,2,2-trifluoroethyl)imidazo[1,2-a]pyridine-8-carbonitrile], with 81 nM; and `N#Cc1c(NCC2CC2c2ccc(F)cc2)ccn2c(CC(F)(F)F)cnc12` (centres unmarked) [Example 30, 7-(((2-(4-Fluorophenyl)cyclopropyl)methyl)amino)-3-(2,2,2-trifluoroethyl)imidazo[1,2-a]pyridine-8-carbonitrile], with 108 nM; and `COc1cccc(F)c1[C@H]1C[C@@H]1CNc1ccn2c(CC3CC3)nnc2c1Cl` [Example 33, 8-Chloro-3-(cyclopropylmethyl)-N-(((1S,2S)-2-(2-fluoro-6-methoxyphenyl)cyclopropyl)methyl)-[1,2,4]triazolo[4,3-a]pyridin-7-amine], with 1 nM.

On to `COc1cccc(F)c1[C@@H]1C[C@H]1CNc1ccn2c(CC3CC3)nnc2c1Cl` [Example 34, 8-Chloro-3-(cyclopropylmethyl)-N-(((1R,2R)-2-(2-fluoro-6-methoxyphenyl)cyclopropyl)methyl)-[1,2,4]triazolo[4,3-a]pyridin-7-amine], for which the EC50 was determined as 1 nM. The same measure, in the same setting: then `Clc1c(NC[C@H]2C[C@@H]2c2cccc3c2OCC3)ccn2c(CC3CC3)nnc12` [Example 35, 8-Chloro-3-(cyclopropylmethyl)-N-(((1S,2S)-2-(2,3-dihydrobenzofuran-7-yl)cyclopropyl)methyl)-[1,2,4]triazolo[4,3-a]pyridin-7-amine], with 3 nM. The same measure, in the same setting: then `Clc1c(NC[C@@H]2C[C@H]2c2cccc3c2OCC3)ccn2c(CC3CC3)nnc12` [Example 36, 8-Chloro-3-(cyclopropylmethyl)-N-(((1R,2R)-2-(2,3-dihydrobenzofuran-7-yl)cyclopropyl)methyl)-[1,2,4]triazolo[4,3-a]pyridin-7-amine], with 2 nM; and `Fc1ccccc1[C@H]1C[C@@H]1CNc1ccn2c(CC3CC3)nnc2c1Cl` [Example 37, 8-Chloro-3-(cyclopropylmethyl)-N-(((1S,2S)-2-(2-fluorophenyl)cyclopropyl)methyl)-[1,2,4]triazolo[4,3-a]pyridin-7-amine], with 4 nM; and `Fc1ccccc1[C@@H]1C[C@H]1CNc1ccn2c(CC3CC3)nnc2c1Cl` [Example 38, 8-Chloro-3-(cyclopropylmethyl)-N-(((1R,2R)-2-(2-fluorophenyl)cyclopropyl)methyl)-[1,2,4]triazolo[4,3-a]pyridin-7-amine], with 4 nM.

For the compound `CN(C[C@H]1C[C@@H]1c1ccc(F)cc1)c1ccn2c(CC3CC3)nnc2c1C(F)(F)F` [Example 39, 3-(Cyclopropylmethyl)-N-(((1S,2S)-2-(4-fluorophenyl)cyclopropyl)methyl)-N-methyl-8-(trifluoromethyl)-[1,2,4]triazolo[4,3-a]pyridin-7-amine], the response was half-maximal at 1 nM (EC50). Same read-out and setting: then `CN(C[C@@H]1C[C@H]1c1ccc(F)cc1)c1ccn2c(CC3CC3)nnc2c1C(F)(F)F` [Example 40, 3-(Cyclopropylmethyl)-N-(((1R,2R)-2-(4-fluorophenyl)cyclopropyl)methyl)-N-methyl-8-(trifluoromethyl)-[1,2,4]triazolo[4,3-a]pyridin-7-amine], with 7 nM. On the same count and under the same terms, in the case of `CN(C[C@H]1C[C@@H]1c1ccc(F)cc1)c1ccn2c(CC(F)(F)F)nnc2c1C(F)(F)F` [Example 41, N-(((1S,2S)-2-(4-fluorophenyl)cyclopropyl)methyl)-N-methyl-3-(2,2,2-trifluoroethyl)-8-(trifluoromethyl)-[1,2,4]triazolo[4,3-a]pyridin-7-amine] it was 2 nM. The same measure, in the same setting: then `Fc1ccc(F)c([C@H]2C[C@@H]2CNc2ccn3c(CC4CC4)nnc3c2Cl)c1` [Example 43, 8-Chloro-3-(cyclopropylmethyl)-N-(((1S,2S)-2-(2,5-difluorophenyl)cyclopropyl)methyl)-[1,2,4]triazolo[4,3-a]pyridin-7-amine], with 2 nM; and `Fc1ccc(F)c([C@@H]2C[C@H]2CNc2ccn3c(CC4CC4)nnc3c2Cl)c1` [Example 44, 8-Chloro-3-(cyclopropylmethyl)-N-(((1R,2R)-2-(2,5-difluorophenyl)cyclopropyl)methyl)-[1,2,4]triazolo[4,3-a]pyridin-7-amine], with 2 nM.

The subject of a further assay is mGluR2/3.
Experiment: not given
Conditions: schizophrenia patients; cited from earlier work.
In the case of `CSCC[C@H](N)C(=O)N[C@@]1(C(=O)O)CS(=O)(=O)[C@H]2[C@H](C(=O)O)[C@H]21` [LY-2140023], the “relief of positive and negative symptoms” value was “relief of positive and negative symptoms”.

In a further assay the test system is mGluR2/3.
Experiment: not given
Conditions: GAD patients; cited from earlier work.
Regarding `C[C@H](N)C(=O)N[C@@]1(C(=O)O)CC[C@H]2[C@H](C(=O)O)[C@H]21` [LY-544344], the “therapeutic effect for anxiety” value was “therapeutic effects”.
